Assay results as given in patent publication US20250000888A1, “METHODS OF TREATING MYELODYSPLASTIC SYNDROMES WITH DECITABINE AND CEDAZURIDINE” (priority 2021, published 2025).
Read-outs that look alike come from different tables or passages of the source.

Legend:
[1] = test system: MDS patients; settings: cited from earlier work; for Median survival: previous reports in clinical trials; for Overall response rate: reported in clinical studies
[2] = test system: patients with MDS; settings: BSC arm 12; cited from earlier work
[3] = test system: patients with MDS or CMML
Protocol: Each treatment was given for the first 5 consecutive days of a 28-day cycle. […] Consistent with standard clinical care with parenteral DNMTi, cycles could be delayed or doses reduced if judged necessary for hematologic or nonhematologic recovery.
Efficacy and safety endpoints were calculated using all data through final cutoff.

[4] = test system: MDS patients; settings: intention-to-treat; 15 mg/m^2 IV over 3 hours, every 8 hours for 3 days; BSC 14.9; cited from earlier work
[5] = test system: LINE-1 (long interspersed nuclear element-1) methylation; experiment: Phase 3 trial pharmacodynamics: DNA demethylation by % LINE-1 methylation analysis; assay type: in vivo, human
[6] = Phase 3 randomized crossover trial: decitabine total exposure over 5 days (AUC) and plasma pharmacokinetics; assay type: in vivo, human; settings: for AUC(0-t): human, plasma, intravenous, 20 mg/m^2/d, read-out: 5-Day Decitabine AUC0-24 LSM
Excerpt: A total of 118 patients was planned for this analysis to provide 90% power at the statistical significance level of 0.05, presuming the true ratio of geometric means is 1.0, the intrapatient coefficient of variation (CV) on an unlogged scale is 0.55, and the 90% confidence interval (CI) equivalence limits for the ratio of geometric means are 0.8 and 1.25. Assuming that 10% of patients would not be evaluable, 132 patients were planned to be randomized.
At least one of either day 1 or 5 decitabine AUC0-24 measurement during the IV decitabine cycle was required to be evaluable. […] Descriptive statistics were calculated for pharmacokinetic values.
Effects of the sequence and cycle were evaluated.

[7] = test system: intermediate or high-risk MDS patients age 60 or older; settings: low-dose decitabine IV; BSC 8.5; cited from earlier work

## Nc1ncn([C@@H]2O[C@H](CO)[C@@H](O)[C@H]2O)c(=O)n1 [azacitidine, 5-azacytidine]
[1]
  Median survival: 12.0-24.5 months
  Overall response rate: 44%-60%
[2]
  Median time to leukemic transformation or death: 21 months

## Nc1ncn([C@H]2C[C@H](O)[C@@H](CO)O2)c(=O)n1 [IV decitabine, 5-aza-2′-deoxycytidine]
[3]; Cycles 1 and 2
  Grade ≥3 TEAE Anemia, %: (32) %
  Grade ≥3 TEAE Febrile neutropenia, %: (7) %
  Grade ≥3 TEAE Leukopenia, %: (14) %
  Grade ≥3 TEAE Neutropenia, %: (29) %
  Grade ≥3 TEAE Pneumonia, %: (5) %
  Grade ≥3 TEAE Thrombocytopenia, %: (32) %
  ≥1 Grade ≥3 TEAE regardless of relation to treatment, %: (67) %
  ≥1 TEAE regardless of relation to treatment, %: 96%
[3]; Cycles 1 and 2, any grade
  TEAE Anemia, %: (36) %
  TEAE Constipation, %: (20) %
  TEAE Decreased appetite, %: (5) %
  TEAE Diarrhea, %: (11) %
  TEAE Dyspnea, %: (10) %
  TEAE Fatigue, %: (17) %
  TEAE Febrile neutropenia, %: (7) %
  TEAE Headache, %: (14) %
  TEAE Nausea, %: (17) %
  TEAE Neutropenia, %: (34) %
  TEAE Thrombocytopenia, %: (39) %
[3]; Cycles 1 and 2, listed as IV Decitabine
  ≥1 TEAE regardless of relation to treatment, %: (96) %
[3]; first 2 cycles, one AE reassigned to IV decitabine given in cycle 1
  Treatment-related serious AE rate, recalculated: 4%
[3]; first 2 treatment cycles
  Patients reporting ≥1 treatment-related serious AE: 3%
  Treatment discontinuation due to an AE: 1 patient
[3]; of 11 fatal serious AEs, oral: sepsis and pneumonia, IV: septic shock, pneumonia
  Deaths deemed related to study medication: three
[1]
  Median survival: 14.0-19.4 months
  Overall response rate: 32%
[4]
  Median survival: 14.0 months
[5]; Cycle 1
  Max. % LINE-1 Demethylation LSM: 14.019%
[5]; Cycle 2
  Max. % LINE-1 Demethylation LSM: 11.968%
[6]; FIG. 2A
  Peak concentrations, IV vs oral administration: higher after IV vs oral
[6]; after oral and IV therapy, except day 5 IV
  Time at which peak decitabine plasma concentrations were detected: 1 h
[6]; day 5 after IV treatment
  Time at which peak decitabine plasma concentrations were attained: 30 min
[6]; Primary endpoint, paired, cycles 1 and 2
  AUC(0-t): 865 ng·h/mL
[6]; Sensitivity, paired, includes data excluded from primary endpoint
  AUC(0-t): 870 ng·h/mL
[6]; Sensitivity, unpaired
  AUC(0-t): 866 ng·h/mL
[6]; in most patients
  Time plasma concentrations remained above the lower limit of quantification: up to 4 hours
[7]
  Overall survival (OS): 10.1 months
